From patent US4460594A, “Bicyclo-hetero-alkylene-1-piperidines, pharmaceutical compositions thereof and methods of use thereof” (Beecham Group p.l.c., priority 1981, dated 1984)
Structures can show the parent of a compound that is named as a salt. Each block holds one molecule with its values, some of them ahead of it.

Tests used:
dopamine receptor [1] = target: T1, dopamine receptor (Rattus norvegicus, UniProt P61169); assay: displacement of 3H-Domperidone, dopamine receptor labelling; type: binding
T1 construct: from tissue
T1 sequence (P61169 whole entry): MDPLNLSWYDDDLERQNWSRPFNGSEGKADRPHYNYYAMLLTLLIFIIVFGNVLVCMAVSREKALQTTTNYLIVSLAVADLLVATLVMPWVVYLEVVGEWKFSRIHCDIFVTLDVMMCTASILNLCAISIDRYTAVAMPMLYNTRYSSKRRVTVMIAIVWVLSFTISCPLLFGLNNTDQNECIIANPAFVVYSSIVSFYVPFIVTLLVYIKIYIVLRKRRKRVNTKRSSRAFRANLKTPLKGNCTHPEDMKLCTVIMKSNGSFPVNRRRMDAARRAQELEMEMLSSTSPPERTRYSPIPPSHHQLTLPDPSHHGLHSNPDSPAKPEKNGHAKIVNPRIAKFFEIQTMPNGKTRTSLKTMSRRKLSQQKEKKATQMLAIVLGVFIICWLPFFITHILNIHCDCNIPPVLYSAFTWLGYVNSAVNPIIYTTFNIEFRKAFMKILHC
Text: (§1) α-Adrenoceptor and dopamine receptors were labelled using methods similar to those previously reported [see S. Lazareno and S. R. Nahorski, Communication presented to Brit. Pharm. Soc., Bradford, 74 (1981), and P. Greengrass and R. Bremer, Eur. J. Pharmacol 55, 323 (1979)].

dopamine receptor [2] = target: T1, dopamine receptor; assay: displacement of 3H-Spiperone, dopamine receptor labelling; type: binding
Text: as §1

[3] = test system: presynaptic dopaminergic autoreceptors; assay: Inhibition of Spontaneous Climbing in the Mouse; type: in vivo; settings: 10 minute period commencing 3 minutes after administration; for ID50, Inhibition of Spontaneous Climbing Behaviour in Mice: subcutaneous; for % Inhibition of Spontaneous Climbing Behaviour in Mice: at 0.2 mg/kg subcutaneous
Method: It is believed that this inhibitory effect is mediated by stimultion of presynaptic dopaminergic autoreceptors, i.e. receptors whose stimulation results in inhibition of dopamine synthesis and electrical activity of dopamine neurones. Spontaneous climbing behavior was assessed by the method of M. P. Martres et al., Brain Res. 136, 319 (1977).
This involves the monitoring of the frequency of climbing behaviour of mice in inverted food hoppers over a 10 minute period commencing 3 minutes after subcutaneous administration of compound.
A climb is defined as the mouse having all four feet off the ground. Experiments are carried out with a minimum of 5 groups of 10 mice, one group acting as control. […] The ID50 value is calculated using the Litchfield and Wilcoxon technique and is defined as the concentration of drug which would be expected to reduce spontaneous climbing of a group of mice by 50%.

α-Adrenoceptor [4] = assay: displacement of 3H-Prazosin, α-adrenoceptor labelling; type: binding
Text: as §1

α-Adrenoceptor [5] = assay: displacement of 3H-Yohimbine, α-adrenoceptor labelling; type: binding
Text: as §1

[6] = 3H-Domperidone, read-out: INHIBITION CONSTANT Ki, 3H-Domperidone
[7] = 3H-Spiperone, read-out: INHIBITION CONSTANT Ki, 3H-Spiperone
[8] = read-out: INHIBITION CONSTANT Ki, 3H-Prazosin
[9] = read-out: INHIBITION CONSTANT Ki, 3H-Yohimbine

Ki (dopamine receptor [1]; [6]): 0.048 µM
Ki (dopamine receptor [2]; [7]): 0.2 µM
Ki (α-Adrenoceptor [4]; [8]): 0.21 µM
Ki (α-Adrenoceptor [5]; [9]): 0.013 µM
Structure (SMILES): Oc1cccc(C2CCCN(CC3Cc4ccccc4O3)C2)c1 (stereo not drawn) [Compound 30, 3-(1-[(2,3-Dihydro-2-benzofuranyl)methyl]-3-piperidinylphenol) hydrobromide hydrate]
ID50, Inhibition of Spontaneous Climbing Behaviour in Mice [3]: 0.09 mg/kg

Structure (SMILES): NC1CCc2cc(O)c(O)cc2C1 (stereo not drawn) [A-6,7-DTN]
Ki (dopamine receptor [1]): 0.012 µM
Ki (dopamine receptor [2]): 0.13 µM
Ki (α-Adrenoceptor [4]; read-out: […] Ki, 3H-Prazosin): 10 µM
Ki (α-Adrenoceptor [5]; read-out: […] Ki, 3H-Yohimbine): 0.56 µM

Structure (SMILES): Oc1cccc(C2CCCN(CCc3c[nH]c4ccccc34)C2)c1 (stereo not drawn) [Compound 34, 3-(1-[2-(1H-3-Indolyl)ethyl]-3-piperidyl)phenol]
% Inhibition of Spontaneous Climbing Behaviour in Mice [3]: 52%

Structure (SMILES): Br.Oc1cccc(C2CCCN(Cc3c(Br)oc4ccccc34)C2)c1 (stereo not drawn) [Compound 11, 3-[1-(2-bromo-3-benzofurylmethyl)-3-piperidyl]phenol hydrobromide]
% Inhibition of Spontaneous Climbing Behaviour in Mice [3]: 24%

Structure (SMILES): Oc1cccc(C2CCCN(CCc3cc4ccccc4o3)C2)c1 (stereo not drawn) [Compound 13, 3-(1-[2-(2-Benzofuryl)ethyl]-3-piperidyl)phenol hydrobromide hemihydrate]
ID50, Inhibition of Spontaneous Climbing Behaviour in Mice [3]: 0.29 mg/kg

Structure (SMILES): Br.Oc1cccc(C2CCCN(Cc3cc4ccccc4o3)C2)c1 (stereo not drawn) [Compound 14, 3-[1-(2-benzofurylmethyl)-3-piperidyl]phenol hydrobromide]
ID50, Inhibition of Spontaneous Climbing Behaviour in Mice [3]: 1.7 mg/kg

Structure (SMILES): NC1CCc2c(ccc(O)c2O)C1 (stereo not drawn) [A-5,6-DTN]
Ki (dopamine receptor [1]; [6]): 0.24 µM
Ki (dopamine receptor [2]; [7]): 0.52 µM
Ki (α-Adrenoceptor [4]; [8]): 16 µM
Ki (α-Adrenoceptor [5]; [9]): 0.69 µM

Structure (SMILES): Oc1cccc(C2CCCN(Cc3coc4ccccc34)C2)c1 (stereo not drawn) [Compound 12, 3-[1-(3-Benzofurylmethyl)-3-piperidyl]phenol hydrobromide hemihydrate]
% Inhibition of Spontaneous Climbing Behaviour in Mice [3]: 23%
